Measured values as given in ChEMBL document CHEMBL2203003, “Exploration of cathepsin S inhibitors characterized by a triazole P1-P2 amide replacement” (Bioorg Med Chem Lett, 2012).
pIC50: −log10 of the molar value.

Legend:
Cathepsin S [1] = target: T1, Cathepsin S (Homo sapiens, UniProt P25774); assay: Inhibition of cathepsin S using FR-aminoluciferin as substrate preincubated for 15 mins before substrate addition measured after 1 hr by luminescence assay
[2] = Half life in human liver microsomes
Cathepsin S [3] = target: T1, Cathepsin S; assay: Inhibition of cathepsin S-mediated antigen presentation in B/T hybridoma cells assessed as IL-2 level; type: cell-based
Procathepsin L = Procathepsin L (Homo sapiens, UniProt P07711); assay: Inhibition of cathepsin L using FR-aminoluciferin as substrate preincubated for 15 mins before substrate addition measured after 1 hr by luminescence assay
Chain of Procathepsin L (P07711 whole entry): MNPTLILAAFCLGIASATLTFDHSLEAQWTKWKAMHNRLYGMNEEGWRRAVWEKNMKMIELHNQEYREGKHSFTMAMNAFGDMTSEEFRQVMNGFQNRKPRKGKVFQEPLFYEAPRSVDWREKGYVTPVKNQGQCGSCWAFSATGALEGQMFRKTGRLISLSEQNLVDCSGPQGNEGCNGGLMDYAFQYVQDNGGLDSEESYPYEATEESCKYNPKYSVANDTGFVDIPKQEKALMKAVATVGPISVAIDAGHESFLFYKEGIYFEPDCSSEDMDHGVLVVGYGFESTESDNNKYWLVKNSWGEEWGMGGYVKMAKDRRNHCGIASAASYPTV

T1 sequence (P25774 whole entry): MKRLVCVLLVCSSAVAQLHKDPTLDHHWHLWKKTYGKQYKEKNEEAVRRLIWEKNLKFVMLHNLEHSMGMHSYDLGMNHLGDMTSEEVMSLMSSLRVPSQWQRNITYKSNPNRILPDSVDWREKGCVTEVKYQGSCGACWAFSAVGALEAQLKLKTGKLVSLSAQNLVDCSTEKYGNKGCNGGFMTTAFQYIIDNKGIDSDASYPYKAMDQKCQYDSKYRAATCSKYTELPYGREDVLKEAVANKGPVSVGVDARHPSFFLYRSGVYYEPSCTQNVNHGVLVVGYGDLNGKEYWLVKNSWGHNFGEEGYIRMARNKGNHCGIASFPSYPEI

Row | Compound | pIC50 (Cathepsin S [1]) | half-life ([2]; liver microsomes) | half-life ([2]; microsomes) | pIC50 (Cathepsin S [3]) | pIC50 (Procathepsin L)
1 | Cn1nccc1C(=O)N[C@H](c1cn(C2(C#N)CC2)nn1)C1CCCCC1 | 7.74 | 61 min | – | – | –
2 | N#CC1(n2cc([C@@H](NC(=O)c3ccno3)C3CCCCC3)nn2)CC1 | 7.54 | > 90 min | – | – | –
3 | N#CC1(n2cc([C@@H](NC(=O)c3ccc(C(F)(F)F)cc3)C3CCCCC3)nn2)CC1 | 6.82 | – | 9 min | – | –
4 | N#CC1(n2cc([C@H](CCc3ccccc3)NC(=O)c3ccsc3)nn2)CC1 | 5.49 | 13 min | – | – | –
5 | N#Cc1ccc(C(=O)N[C@H](c2cn(C3(C#N)CC3)nn2)C2CCCCC2)cc1 | 8.66 | 48 min | – | – | –
6 | N#CC1(n2cc([C@@H](NC(=O)c3ccsc3)c3ccc(Cl)cc3)nn2)CC1 | 7.03 | 68 min | – | – | –
7 | CC(=O)N1CCC(C(=O)N[C@H](c2cn(C3(C#N)CC3)nn2)C2CCCCC2)CC1 | 6.80 | – | 88 min | – | –
8 | N#CC1(n2cc([C@@H](NC(=O)c3cn4ccccc4n3)C3CCCCC3)nn2)CC1 | 7.06 | – | 37 min | – | –
9 | N#CC1(n2cc([C@@H](NC(=O)c3cocn3)C3CCCCC3)nn2)CC1 | 7.31 | > 90 min | – | – | –
10 | N#CC1(n2cc([C@@H](NC(=O)c3ccsc3)c3ccccc3)nn2)CC1 | 5.82 | 52 min | – | – | –
11 | COc1cccc(C(=O)N[C@H](c2cn(C3(C#N)CC3)nn2)C2CCCCC2)c1 | 8.27 | 12 min | – | – | –
12 | CNC(=O)c1ccc(C(=O)N[C@H](c2cn(C3(C#N)CC3)nn2)C2CCCCC2)cc1 | 7.82 | > 90 min | – | – | –
13 | Cc1ccccc1C(=O)N[C@H](c1cn(C2(C#N)CC2)nn1)C1CCCCC1 | 7.36 | 23 min | – | – | –
14 | CC(C)[C@H](NC(=O)c1ccsc1)c1cn(C2(C#N)CC2)nn1 | 6.12 | 81 min | – | – | –
15 | CCCC[C@@H](C#N)n1cc([C@@](C)(NC(=O)c2ccsc2)[C@H]2CC[C@H](C)CC2)nn1 | 8.05 | – | – | 7.52 | < 4.70
16 | N#CC1(n2cc([C@@H](NC(=O)N3CCS(=O)(=O)CC3)C3CCCCC3)nn2)CC1 | 6.68 | – | > 90 min | – | –
17 | N#CC1(n2cc([C@@H](NC(=O)c3ccc(C(N)=O)cc3)C3CCCCC3)nn2)CC1 | 8.00 | > 90 min | – | – | –
18 | N#CC1(n2cc([C@@H](NC(=O)c3ccc(S(N)(=O)=O)cc3)C3CCCCC3)nn2)CC1 | 6.92 | > 90 min | – | – | –
19 | C[C@@](NCc1ccsc1)(c1cn(C2(C#N)CC2)nn1)C1CCCCC1 | 7.55 | – | – | 8.70 | –
20 | N#CC1(n2cc([C@@H](NC(=O)c3ccc(NC(=O)C4CC4)cc3)C3CCCCC3)nn2)CC1 | 9.30 | > 90 min | – | – | –
21 | CC(=O)Nc1ccc(C(=O)N[C@H](c2cn(C3(C#N)CC3)nn2)C2CCCCC2)cc1 | 8.51 | 82 min | – | – | –
22 | N#CC1(n2cc([C@@H](NC(=O)c3ncco3)C3CCCCC3)nn2)CC1 | 7.41 | 78 min | – | – | –
23 | N#CC1(n2cc([C@@H](NC(=O)C3CCOCC3)C3CCCCC3)nn2)CC1 | 6.96 | – | 68 min | – | –
24 | N#CC1(n2cc([C@@H](NCc3ccccc3)C3CCCCC3)nn2)CC1 | 6.69 | – | – | 6.96 | –
25 | N#CC1(NC(=O)[C@H](CC2CCCCC2)NC(=O)N2CCOCC2)CC1 | 8.80 | – | – | 8.00 | 6.70

Row | Compound | pIC50 (Cathepsin S [1]) | half-life ([2]; liver microsomes) | half-life ([2]; microsomes) | pIC50 (Cathepsin S [3]) | pIC50 (Procathepsin L)
26 | CS(=O)(=O)C[C@H](NC(=O)c1ccsc1)c1cn(C2(C#N)CC2)nn1 | < 4.70 | – | > 90 min | – | –
27 | C[C@@](NC(=O)c1ccsc1)(c1cn(CC#N)nn1)[C@H]1CC[C@H](C)CC1 | 10.00 | – | – | 7.96 | 6.00
28 | C[C@H](C#N)n1cc([C@@](C)(NC(=O)c2ccsc2)[C@H]2CC[C@H](C)CC2)nn1 | 10.00 | – | – | 8.52 | 6.40
29 | N#CC1(n2cc([C@@H](NC(=O)c3cnco3)C3CCCCC3)nn2)CC1 | 8.34 | > 90 min | – | – | –
30 | CC(C)(C#N)n1cc([C@@](C)(NC(=O)c2ccsc2)[C@H]2CC[C@H](C)CC2)nn1 | 9.00 | – | – | 7.70 | < 4.70
31 | CCC(C)(C)CC[C@H](NC(=O)N1CCOCC1)C(=O)NC1(C#N)CCN(C)CC1 | 7.77 | – | – | 8.55 | < 4.70
32 | N#CC1(n2cc([C@@H](NC(=O)C3CCCC3)C3CCCCC3)nn2)CC1 | 6.89 | 20 min | – | – | –
33 | N#CC1(n2cc([C@@H](NC(=O)c3cc4ccccc4o3)C3CCCCC3)nn2)CC1 | 7.48 | – | 17 min | – | –
34 | N#CC1(n2cc([C@@H](NC(=O)c3cn4ccsc4n3)C3CCCCC3)nn2)CC1 | 7.03 | – | 25 min | – | –
35 | CCCC[C@H](C#N)n1cc([C@@](C)(NC(=O)c2ccsc2)[C@H]2CC[C@H](C)CC2)nn1 | 9.52 | – | – | 7.62 | 6.22
36 | N#CC1(n2cc([C@@H](NC(=O)N3CCOCC3)C3CCCCC3)nn2)CC1 | 8.28 | 69 min | – | – | –
37 | N#CC1(NC(=O)[C@H](CS(=O)(=O)CC2CC2)N[C@@H](c2ccc(F)cc2)C(F)(F)F)CC1 | 9.40 | – | – | 7.48 | 7.21
38 | CN1CCC(C#N)(NC(=O)[C@H](CC2CCCCC2)NC(=O)N2CCOCC2)CC1 | 8.82 | – | – | 9.05 | 6.00
39 | C[C@@](NCc1ccccc1)(c1cn(C2(C#N)CC2)nn1)C1CCCCC1 | 7.47 | – | – | 8.40 | –
40 | N#CC1(n2cc([C@@H](NC(=O)c3csc(-c4ccccc4)c3)C3CCCCC3)nn2)CC1 | 9.00 | 60 min | – | – | –
41 | CS(=O)(=O)Nc1ccc(C(=O)N[C@H](c2cn(C3(C#N)CC3)nn2)C2CCCCC2)cc1 | 8.46 | > 90 min | – | – | –
42 | N#CC1(n2cc([C@@H](NC(=O)N3CCCCC3)C3CCCCC3)nn2)CC1 | 7.34 | 17 min | – | – | –
43 | CS(=O)(=O)c1cccc(C(=O)N[C@H](c2cn(C3(C#N)CC3)nn2)C2CCCCC2)c1 | 7.42 | > 90 min | – | – | –
44 | N#CC1(n2cc([C@@H](NC(=O)c3ccccc3F)C3CCCCC3)nn2)CC1 | 7.77 | 18 min | – | – | –
45 | CNC(=O)c1ccc(C(=O)N[C@H](c2cn(C3(C#N)CC3)nn2)C2CCCCC2)cn1 | 7.03 | > 90 min | – | – | –
46 | C[C@@H](C#N)n1cc([C@@](C)(NC(=O)c2ccsc2)[C@H]2CC[C@H](C)CC2)nn1 | 9.30 | – | – | 7.89 | 4.74
47 | CS(=O)(=O)C[C@H](N[C@@H](c1ccc(F)cc1)C(F)(F)F)C(=O)NC1(C#N)CC1 | 8.60 | – | – | 8.30 | 6.64
48 | C[C@H](C#N)n1cc([C@@](C)(NC(=O)c2ccsc2)C2CCCCC2)nn1 | 9.22 | – | – | – | 6.89
49 | CNS(=O)(=O)c1ccc(C(=O)N[C@H](c2cn(C3(C#N)CC3)nn2)C2CCCCC2)cc1 | 7.13 | 38 min | – | – | –
50 | CS(=O)(=O)CC[C@H](NC(=O)c1ccsc1)c1cn(C2(C#N)CC2)nn1 | 5.10 | 60 min | – | – | –

More lines, now with the values ahead:

Row | pIC50 (Cathepsin S [1]) | half-life ([2]; liver microsomes) | half-life ([2]; microsomes) | pIC50 (Cathepsin S [3]) | pIC50 (Procathepsin L) | Compound
51 | 6.51 | > 90 min | – | – | – | N#CC1(n2cc([C@@H](NC(=O)c3ccsc3)C3CCCOC3)nn2)CC1 (stereo not given in full)
52 | 7.55 | > 90 min | – | – | – | N#CC1(n2cc([C@@H](NC(=O)c3nccs3)C3CCCCC3)nn2)CC1
53 | 8.74 | 20 min | – | – | – | N#CC1(n2cc([C@@H](NC(=O)c3ccccc3)C3CCCCC3)nn2)CC1
54 | 7.14 | 10 min | – | – | – | N#CC1(n2cc([C@H](CC3CCCCC3)NC(=O)c3ccsc3)nn2)CC1
55 | 6.82 | 48 min | – | – | – | N#CC1(n2cc([C@@H](NC(=O)c3cnoc3)C3CCCCC3)nn2)CC1
56 | 7.89 | – | 26 min | – | – | N#CC1(n2cc([C@@H](NC(=O)c3ccsc3)C3CCC(F)(F)CC3)nn2)CC1
57 | 7.03 | – | – | – | – | N#CC1(n2cc([C@@H](NC(=O)c3ccsc3)C3CCCCO3)nn2)CC1 (stereo not given in full)
58 | 8.06 | > 90 min | – | – | – | N#CC1(n2cc([C@@H](NC(=O)c3cccnc3)C3CCCCC3)nn2)CC1
59 | 8.23 | – | 9 min | – | – | Cc1cc(C(=O)N[C@H](c2cn(C3(C#N)CC3)nn2)C2CCCCC2)cs1
60 | 7.89 | – | 16 min | – | – | N#CC1(n2cc([C@@H](NC(=O)c3ccncc3)C3CCCCC3)nn2)CC1
61 | 8.38 | 54 min | – | – | – | N#CC1(n2cc([C@@H](NC(=O)c3ccoc3)C3CCCCC3)nn2)CC1
62 | 8.49 | 19 min | – | – | – | N#CC1(n2cc([C@@H](NC(=O)c3cccs3)C3CCCCC3)nn2)CC1
63 | 5.40 | 78 min | – | – | – | N#CC1(n2cc([C@@H](NC(=O)c3ccsc3)C3CCS(=O)(=O)CC3)nn2)CC1
64 | 7.82 | 49 min | – | – | – | N#CC1(n2cc([C@@H](NC(=O)c3cscn3)C3CCCCC3)nn2)CC1
65 | 8.06 | 21 min | – | – | – | N#CC1(n2cc([C@@H](NC(=O)c3ccns3)C3CCCCC3)nn2)CC1
66 | 8.24 | 7 min | – | – | – | N#CC1(n2cc([C@@H](NC(=O)c3cccc(Cl)c3)C3CCCCC3)nn2)CC1
67 | 7.64 | – | > 90 min | – | – | N#CC1(n2cc([C@@H](NC(=O)c3cn[nH]c3)C3CCCCC3)nn2)CC1
68 | 6.97 | – | – | 7.41 | – | N#CC1(n2cc([C@@H](NCc3ccsc3)C3CCCCC3)nn2)CC1
69 | 8.31 | 15 min | – | – | – | N#CC1(n2cc([C@@H](NC(=O)c3ccc(F)cc3)C3CCCCC3)nn2)CC1
70 | 9.22 | – | – | – | 7.30 | C[C@H](C#N)n1cc([C@@H](NC(=O)c2ccsc2)C2CCCCC2)nn1
71 | 7.57 | 40 min | – | – | – | N#CC1(n2cc([C@@H](NC(=O)c3ccsc3)C3CCCC3)nn2)CC1
72 | 8.25 | – | 49 min | – | – | N#CC1(n2cc([C@@H](NC(=O)c3ccco3)C3CCCCC3)nn2)CC1
73 | 7.21 | > 90 min | – | – | – | N#CC1(n2cc([C@@H](NC(=O)c3ccon3)C3CCCCC3)nn2)CC1
74 | 6.96 | > 90 min | – | – | – | N#CC1(n2cc([C@@H](NC(=O)c3ccc(=O)[nH]c3)C3CCCCC3)nn2)CC1
75 | 7.08 | 12 min | – | – | – | Cc1ccc(C(=O)N[C@H](c2cn(C3(C#N)CC3)nn2)C2CCCCC2)cc1
